According to US10821115B2, “Compounds that inhibit Mcl-1 protein” (priority 2017, dated 2020):
Read-outs that look alike come from different tables or passages of the source.

What was measured:
[1] = test system: human multiple myeloma cell line, OPM-2; experiment: Cell viability assay (OPM-2 10 FBS), CellTiter-Glo; assay type: cell-based
In short: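 OPM-2 cells at 3000 cells/well in RPMI 1640 with 10% FBS were exposed to serially diluted compounds for 16 h at 37 °C, 5% CO2.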

[2] = target: recombinant human Mcl-1 (residues 171-327) / Bim interaction (Homo sapiens (Human), UniProt Q07820); experiment: biochemical; assay type: binding; conditions: read-out: Mcl-1 HTRF IC50
recombinant human Mcl-1 (residues 171-327) / Bim interaction, sequence (Q07820 171-327): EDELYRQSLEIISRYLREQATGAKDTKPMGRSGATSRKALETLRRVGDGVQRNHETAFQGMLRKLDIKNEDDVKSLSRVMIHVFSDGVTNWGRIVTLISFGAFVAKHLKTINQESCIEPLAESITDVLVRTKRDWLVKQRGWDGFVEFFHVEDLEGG

[3] = Homo sapiens, OPM-2, 16 h, read-out: OPM-2 10% FBS IC50 IP, OPM-2 cells, 10% FBS, 16 h incubation
[4] = 0.1 nM Mcl-1(171-327), 0.05 nM biotin-Bim (51-76)
[5] = read-out: OPM-2 10% FBS IC50 IP, OPM-2 cells, 10% FBS, 16 h, CellTiter-Glo
[6] = TR-FRET, Mcl-1(171-327) / biotin-Bim (51-76)
[7] = Homo sapiens, OPM-2, 16 h, read-out: OPM-2 10% FBS IC50 IP, OPM-2 cells, 10% FBS, 16 h, CellTiter-Glo

SMILES | IC50 [1, 3] [nM] | IC50 [2, 4] [nM] | IC50 [1, 5] [nM] | IC50 [2, 6] [nM] | IC50 [1, 7] [nM]
CO[C@@]1(CN2CC3(C2)CN(C(=O)OC(C)(C)C)C3)/C=C/C[C@H](C)[C@@H](C)S(=O)(=O)NC(=O)c2ccc3c(c2)N(C[C@@H]2CC[C@H]21)C[C@@]1(CCCc2cc(Cl)ccc21)CO3 [Example 204, tert-butyl 6-(((1S,3′R,6′R,7′S,8′E,11′S, 12′R)-6-chloro-7′-methoxy-11′,12′-dimethyl-13′,13′-dioxido-15′-oxo-3,4-dihydro-2H-spiro[naphthalene-1,22′-[20]oxa[13]thia[1,14]diazatetracyclo [14.7.2.0~3,6~.0~19,24~]pentacosa[8,16,18,24]tetraen]-7′-yl)methyl)-2,6-diazaspiro[3.3]heptane-2-carboxylate] | 319 | 0.23 |  |  | 
C[C@@H]1[C@@H](C)CCC[C@@](O)(Cc2ccncn2)[C@@H]2CC[C@H]2CN2C[C@@]3(CCCc4cc(Cl)ccc43)COc3ccc(cc32)C(=O)NS1(=O)=O [Example 100113, (1S,3′R,6′R,7′R,11′S,12′R)-6-chloro-7′-hydroxy-11′,12′-dimethyl-7′-(4-pyrimidinylmethyl)-3,4-dihydro-2H,15′H-spiro[naphthalene-1,22′-[20]oxa[13]thia[1,14]diazatetracyclo [14.7.2.0~3,6~.0~19,24~]pentacosa[16,18,24]trien]-15′-one 13′,13′-dioxide] |  |  | 70 | 0.182 | 
CCO[C@@]1(CN2CCN3CCCC[C@@H]3C2)/C=C/C[C@H](C)[C@@H](C)S(=O)(=O)NC(=O)c2ccc3c(c2)N(C[C@@H]2CC[C@H]21)C[C@@]1(CCCc2cc(Cl)ccc21)CO3 [Example 107, (1S,3′R,6′R,7′S,8′E,11′S,12′R)-6-chloro-7′-ethoxy-11′,12′-dimethyl-7′-((9aR)-octahydro-2H-pyrido[1,2-a]pyrazin-2-ylmethyl)-3,4-dihydro-2H,15′H-spiro[naphthalene-1,22′-[20]oxa[13]thia[1,14]diazatetracyclo [14.7.2.0~3,6~.0~19,24~]pentacosa[8,16,18,24]tetraen]-15′-one 13′,13′-dioxide] | 872 | 1.14 |  |  | 
C[C@@H]1[C@@H](C)C/C=C/[C@@](O)([C@@H](O)C(=O)N(C)C)[C@@H]2CC[C@H]2CN2C[C@@]3(CCCc4cc(Cl)ccc43)COc3ccc(cc32)C(=O)NS1(=O)=O [Example 100289, (2R)-2-((1S,3′R,6′R,7′S,8′E,11′S,12′R)-6-chloro-7′-hydroxy-11′,12′-dimethyl-13′,13′-dioxido-15′-oxo-3,4-dihydro-2H-spiro[naphthalene-1,22′-[20]oxa[13]thia[1,14]diazatetracyclo [14.7.2.0~3,6~.0~19,24~]pentacosa[8,16,18,24]tetraen]-7′-yl)-2-hydroxy-N,N-dimethylethanamide] |  |  |  | 0.878 | 3960
CO[C@@]1([C@@H](C)O)/C=C/C[C@H](C)[C@@H](C)S(=O)(=O)NC(=O)c2ccc3c(c2)N(C[C@@H]2CC[C@H]21)C[C@@]1(CCCc2cc(Cl)ccc21)CO3 (stereo in doubt) [Example 100487] |  |  |  | 0.436 | 340
C[C@@H]1[C@@H](C)CCC[C@@](O)(CS(=O)(=O)N(C)C(C)(C)C)[C@@H]2CC[C@H]2CN2C[C@@]3(CCCc4cc(Cl)ccc43)COc3ccc(cc32)C(=O)NS1(=O)=O [Example 100169, 1-((1S,3′R,6′R,7′S,11′S,12′R)-6-chloro-7′-hydroxy-11′,12′-dimethyl-13′,13′-dioxido-15′-oxo-3,4-dihydro-2H-spiro[naphthalene-1,22′-[20]oxa[13]thia[1,14]diazatetracyclo [14.7.2.0~3,6~.0~19,24~]pentacosa[16,18,24]trien]-7′-yl)-N-methyl-N-(2-methyl-2-propanyl)methanesulfonamide] |  |  | 2270 | 4.83 | 
CO[C@@]1(CC(=O)N2CCN(C)C[C@H]2C)/C=C/C[C@H](C)[C@@H](C)S(=O)(=O)NC(=O)c2ccc3c(c2)N(C[C@@H]2CC[C@H]21)C[C@@]1(CCCc2cc(Cl)ccc21)CO3 [Example 100417, (1S,3′R,6′R,7′S,8′E,11′S,12′R)-6-chloro-7′-(2-((2R)-2,4-dimethyl-1-piperazinyl)-2-oxoethyl)-7′-methoxy-11′,12′-dimethyl-3,4-dihydro-2H,15′H-spiro[naphthalene-1,22′-[20]oxa[13]thia[1,14]diazatetracyclo [14.7.2.0~3,6~.0~19,24~]pentacosa[8,16,18,24]tetraen]-15′-one 13′,13′-dioxide] |  |  |  | 0.345 | 379
CO[C@@]1(CN2CCN3CCCC[C@@H]3C2)/C=C/C[C@H](C)[C@@H](CC2CCC2)S(=O)(=O)NC(=O)c2ccc3c(c2)N(C[C@@H]2CC[C@H]21)C[C@@]1(CCCc2cc(Cl)ccc21)CO3 [Example 41, (1S,3′R,6′R,7′S,8′E,11′S,12′R)-6-chloro-12′-(cyclobutylmethyl)-7′-methoxy-11′-methyl-7′-((9aR)-octahydro-2H-pyrido[1,2-a]pyrazin-2-ylmethyl)-3,4-dihydro-2H,15′H-spiro[naphthalene-1,22′-[20]oxa[13]thia[1,14]diazatetracyclo [14.7.2.0~3,6~.0~19,24~]pentacosa[8,16,18,24]tetraen]-15′-one 13′,13′-dioxide] | 810 | 0.642 |  |  | 
C[C@@H]1[C@@H](C)C/C=C/C(O)(Cc2nccn2C)[C@@H]2CC[C@H]2CN2C[C@@]3(CCCc4cc(Cl)ccc43)COc3ccc(cc32)C(=O)NS1(=O)=O (stereo in doubt) [Example 100524, (1S,3′R,6′R,7′R,8′E,11′S,12′R)-6-chloro-7′-hydroxy-11′,12′-dimethyl-7′-((1-methyl-1H-imidazol-2-yl)methyl)-3,4-dihydro-2H,15′H-spiro[naphthalene-1,22′-[20]oxa[13]thia[1,14]diazatetracyclo [14.7.2.0~3,6~.0~19,24~]pentacosa[8,16,18,24]tetraen]-15′-one 13′,13′-dioxide] |  |  |  | 0.99 | 842
CO[C@]1(CN2CCN3CCOC[C@H]3C2)/C=C/C[C@H](C)[C@@H](C)S(=O)(=O)NC(=O)c2ccc3c(c2)N(C[C@@H]2CC[C@H]21)C[C@@]1(CCCc2cc(Cl)ccc21)CO3 [Example 58, (1S,3′R,6′R,7′R,8′E,11′S,12′R)-6-chloro-7′-((9aR)-hexahydropyrazino[2,1-c][1,4]oxazin-8(1H)-ylmethyl)-7′-methoxy-11′,12′-dimethyl-3,4-dihydro-2H,15′H-spiro[naphthalene-1,22′-[20]oxa[13]thia[1,14]diazatetracyclo [14.7.2.0~3,6~.0~19,24~]pentacosa[8,16,18,24]tetraen]-15′-one 13′,13′-dioxide] | 95 | 0.719 |  |  | 
C[C@@H]1[C@@H](C)CCC[C@](O)(CCN(C)C)[C@@H]2CC[C@H]2CN2C[C@@]3(CCCc4cc(Cl)ccc43)COc3ccc(cc32)C(=O)NS1(=O)=O [Example 100088, (1S,3′R,6′R,7′S,11′S,12′R)-6-chloro-7′-(2-(dimethylamino)ethyl)-7′-hydroxy-11′,12′-dimethyl-3,4-dihydro-2H,15′H-spiro[naphthalene-1,22′-[20]oxa[13]thia[1,14]diazatetracyclo [14.7.2.0~3,6~.0~19,24~]pentacosa[16,18,24]trien]-15′-one 13′,13′-dioxide] |  |  |  | 2.12 | 1340
CO[C@@]1(c2nccs2)/C=C/C[C@H](C)[C@@H](C)S(=O)(=O)NC(=O)c2ccc3c(c2)N(C[C@@H]2CC[C@H]21)C[C@@]1(CCCc2cc(Cl)ccc21)CO3 (single isomer, unassigned) [Example 100497] |  |  |  | 0.064 | 106
C[C@@H]1[C@@H](C)C[C@@H]2C=CC[C@](O)(C2)[C@@H]2CC[C@H]2CN2C[C@@]3(CCCc4cc(Cl)ccc43)COc3ccc(cc32)C(=O)NS1(=O)=O [Example 100056, (1S,3′R,6′R,7′S,11′S,13′S,14′R)-6-chloro-7′-hydroxy-13′,14′-dimethyl-3,4-dihydro-2H,17′H-spiro[naphthalene-1,24′-[22]oxa[15]thia[1,16]diazapentacyclo [16.7.2.1~7,11~.0~3,6~.0~21,26~]octacosa [9,18,20,26]tetraen]-17′-one 15′,15′-dioxide] |  |  |  | 0.424 | 1680
C[C@@H]1[C@@H](C)C/C=C/[C@](CN2CCN3CCOC[C@@H]3C2)(OCC(F)(F)F)[C@@H]2CC[C@H]2CN2C[C@@]3(CCCc4cc(Cl)ccc43)COc3ccc(cc32)C(=O)NS1(=O)=O [Example 49, (1S,3′R,6′R,7′S,8′E,11′S,12′R)-6-chloro-7′-((9aS)-hexahydropyrazino[2,1-c][1,4]oxazin-8(1H)-ylmethyl)-11′,12′-dimethyl-7′-(2,2,2-trifluoroethoxy)-3,4-dihydro-2H,15′H-spiro[naphthalene-1,22′-[20]oxa[13]thia[1,14]diazatetracyclo [14.7.2.0~3,6~.0~19,24~]pentacosa[8,16,18,24]tetraen]-15′-one 13′,13′-dioxide] | 185 | 0.087 |  |  | 
C[C@@H]1[C@@H](C)C/C=C/[C@](C)(O)[C@@H]2CC[C@H]2CN2C[C@@]3(CCCc4cc(Cl)ccc43)COc3ccc(nc32)C(=O)NS1(=O)=O (single isomer, unassigned) [Example 100600] |  |  |  | 0.445 | 528
C[C@@H]1[C@@H](C)C/C=C/[C@@](O)([C@@H](C)C(=O)N(C)C)[C@@H]2CC[C@H]2CN2C[C@@]3(CCCc4cc(Cl)ccc43)COc3ccc(cc32)C(=O)NS1(=O)=O (single isomer, unassigned) [Example 100124] |  |  | 270 | 0.323 | 
